Test results reported in article PMC9031298, “Enhanced In Vitro Antiviral Activity of Hydroxychloroquine Ionic Liquids against SARS-CoV-2” (Pharmaceutics, 2022).
“And” between values parts separate entries of the source, which are not always exact repeats. Equal values may be shown once. Where a name gives a salt, the structure may show the parent alone. Read-outs that look alike come from different tables or passages of the source.

How the values were obtained:
[1] = system: SARS-CoV-2; settings: for EC90: read-out: EC90, inhibition of virus-induced CPE; for EC50: read-out: EC50, inhibition of virus-induced CPE; for inhibition of CPE: at 10 μM, Vero E6, 72 hpi
[2] = system: Vero E6 cells; assay: Cell viability assay (CellTiter-Glo), cytotoxicity; settings: non-infected Vero E6 cells, 72 h, mean of three experiments
[3] = system: Vero E6 cells
[4] = Critical micelle concentration by ionic conductivity; format: physicochemical; settings: 20 °C, water
Experimental: The critical micelle concentrations of the HCQ-ILs with surfactant-like anions were calculated using ionic conductivity measurements. A Crison Basic 30+ Radiometer Analytical conductivity meter was used to measure the ionic conductivities (μS/cm) of surfactant solutions in a glass cell at 20 °C containing a magnetic stirrer. For this method, a known amount of Milli-Q water was placed in a thermostated glass cell and the surfactant solution of known concentration was progressively added using a micropipette under constant stirring. Each conductivity value was measured at least three times.
The ability to form micelles of the lipophilic HCQ-ILs [DocSO3] (5) and [C12SO4] (8) was studied by ionic conductivity measurements. The inherent ability of these HCQ-ILs to self-aggregate into micelles can render adequate drug delivery properties. […] The critical micelle concentration (cmc) values, calculated by resolving both equations, are given in Table 3, alongside the cmc values for the starting halide salts (Na[DocSO3] and [C12SO4]).

[5] = cited from earlier work
[6] = Octanol–water partition coefficient (Kow, Log P) by UV–Vis; settings: logarithm of Kow, ca. 1 mg/mL, triplicate
[7] = Water solubility by stepwise addition of water until visual dissolution; settings: double-distilled water, 37 °C; for Water Solubility: visual inspection; for solubility: water, thermodynamic from solid
[8] = system: SARS-CoV-2; assay: microbe, parasite or virus in culture; format: cell-based; settings: for EC50 / EC90: qRT-PCR; for EC50: four experiments, read-out: EC50, inhibition of vRNA transcription; for EC90: read-out: EC90, inhibition of vRNA transcription; for inhibition of vRNA transcription: at 16.7 μM, 48 hpi
[9] = system: SARS-CoV-2; assay: microbe, parasite or virus in culture; format: cell-based; settings: for EC50 / EC90: TCID50 assay; for EC50: three experiments, read-out: EC50, inhibition of production of infectious progeny viruses; for EC90: read-out: EC90, inhibition of production of infectious progeny viruses
[10] = system: SARS-CoV-2; assay: microbe, parasite or virus in culture; settings: Severe acute respiratory syndrome coronavirus 2, Vero C1008, read-out: EC90, inhibition of virus-induced CPE, Vero E6 cells, 100 TCID50, 72 hpi
[11] = Cell viability assay (CellTiter-Glo), cytotoxicity; settings: African green monkey, Vero E6 cells (non-infected), CC50, non-infected Vero E6 cells, mean of three experiments
[12] = Vero E6 cells, 100 TCID50, 72 hpi
[13] = Severe acute respiratory syndrome coronavirus 2, Vero C1008, Vero E6, 48 hpi

For CCN(CCO)CCC[C@H](C)Nc1ccnc2cc(Cl)ccc12 [compound 6], the EC90 [1] was over 25 µM and the CC50 [2] was 73.2 µM.
With O=C([O-])[C@H](O)[C@@H](O)[C@H](O)[C@H](O)CO.[Na+] [9a] the CC50 [3] was over 400 µM.
In the case of CCCCC(CC)COC(=O)CC(C(=O)OCC(CC)CCCC)S(=O)(=O)[O-].[Na+] (centres unmarked) [5a], the cmc [4] is given as 1540 µM and the “Reference cmc (25 °C)” value [5] is given as 5.0 × 10^−3 [71] M.
Work on CCCCCCCCCCCCS(=O)(=O)O.CCCCCCCCCCCCS(=O)(=O)O.CCN(CCO)CCCC(C)Nc1ccnc2cc(Cl)ccc12 (centres unmarked) [compound 8, N^4-(7-chloroquinolin-4-yl)-N^1-ethyl-N^1-(2-hydroxyethyl)pentane-1,4-diaminium bis(dodecane-1-sulfonate)] yielded a cmc [4] of 4.83 µM, an EC50 [1] of 15.8 µM and an EC90 [1] of 23.8 µM. The “Log P” value [6] was 1.01 and the “Water Solubility” value [7] was under 0.5 mg/mL.
With CCCCC(CC)COC(=O)CC(C(=O)OCC(CC)CCCC)S(=O)(=O)O.CCCCC(CC)COC(=O)CC(C(=O)OCC(CC)CCCC)S(=O)(=O)O.CCN(CCO)CCCC(C)Nc1ccnc2cc(Cl)ccc12 (centres unmarked) [compound 5, N^4-(7-chloroquinolin-4-yl)-N^1-ethyl-N^1-(2-hydroxyethyl)pentane-1,4-diaminium bis(1,4-bis((2-ethylhexyl)oxy)-1,4-dioxobutane-2-sulfonate)] the cmc [4] was 1.79 µM, the “SI (CC50/EC50), CPE inhibition” value [1] was 7.8 and the EC50 [1] was 8.9 µM. The EC90 [1] was 20.9 µM, the CC50 [2] was 69.8 µM and the “Log P” value [6] was 1.24. The “Water Solubility” value [7] was under 0.5 mg/mL.
In the case of CCN(CCO)CCCC(C)Nc1ccnc2cc(Cl)ccc12.O=C(O)[C@@H](O)[C@H](O)[C@@H](O)[C@@H](O)CO.O=C(O)[C@@H](O)[C@H](O)[C@@H](O)[C@@H](O)CO [compound 9, N^4-(7-chloroquinolin-4-yl)-N^1-ethyl-N^1-(2-hydroxyethyl)pentane-1,4-diaminium bis((2S,3R,4S,5S)-2,3,4,5,6-pentahydroxyhexanoate)], the EC50 ([8]; Vero E6, 48 hpi) is reported as 16.3 µM, the EC90 ([8]; Vero E6, 48 hpi) is reported as 23.1 µM and the “inhibition of vRNA transcription” value [8] is reported as 55.8%. For the same compound, the EC50 ([9]; Vero E6, 48 hpi) was 16.9 µM, the EC90 ([9]; Vero E6, 48 hpi) was 22.5 µM and the “inhibition of production of infectious progeny” value ([9]; at 16.7 μM, 48 hpi) was 56.5%. The EC50 [1] was 8.5 µM, the EC90 [1] was over 25 µM and the CC50 [2] was 196 µM. For the same compound, the “Log P” value [6] was −1.39 and the “Water Solubility” value [7] was 1230 mg/mL.
For CCN(CCO)CCCC(C)Nc1ccnc2cc(Cl)ccc12.Cc1ccc(S(=O)(=O)O)cc1.Cc1ccc(S(=O)(=O)O)cc1 (centres unmarked) [compound 7, N^4-(7-chloroquinolin-4-yl)-N^1-ethyl-N^1-(2-hydroxyethyl)pentane-1,4-diaminium bis(4-methylbenzenesulfonate)], the EC50 [1, 12] was 15 µM, the EC90 [1, 12] was 21.1 µM and the CC50 [2] was 207 µM. For the same compound, the “Log P” value [6] was −1.12 and the solubility [7] was 1400 mg/mL.
In the case of CCN(CCO)CCCC(C)Nc1ccnc2cc(Cl)ccc12 (centres unmarked) [compound 1, hydroxychloroquine sulfate, reference compound], the EC50 [8, 13] is reported as 18.6 µM, the EC90 [8, 13] is reported as 25.1 µM and the “inhibition of vRNA transcription” value [8] is reported as 34.0%. The EC50 [9, 13] was 21.7 µM, the EC90 [9, 13] was 24.3 µM and the “inhibition of CPE” value [1] was “lower than 20%”. The EC50 [1, 12] was 16.5 µM, the EC90 [10] was 23 µM and the CC50 at 72 h [11] was 214 µM. For the same compound, the “Log P” value [6] was −2.25.
Work on CCCCCCS(=O)(=O)O [4a] yielded a CC50 [3] of over 400 µM.
For CCCCCCCCCCCCOS(=O)(=O)[O-].[Na+] [8a, reference compound], the cmc [4] is given as 9600 µM and the “Reference cmc (25 °C)” value [5] is given as 8.0 × 10^−3 [72] M.
With Cc1ccc(S(=O)(=O)[O-])cc1.[Na+] [7a] the CC50 [3] was over 400 µM.
With CCN(CCO)CCCC(C)Nc1ccnc2cc(Cl)ccc12.CS(=O)(=O)O.CS(=O)(=O)O (centres unmarked) [compound 3, N^4-(7-chloroquinolin-4-yl)-N^1-ethyl-N^1-(2-hydroxyethyl)pentane-1,4-diaminium bis(methanesulfonate)] the EC50 ([8]; Vero E6, 48 hpi) was 17 µM, the EC90 ([8]; Vero E6, 48 hpi) was 23.4 µM and the “inhibition of vRNA transcription” value [8] was 48.5%. The EC50 ([9]; Vero E6, 48 hpi) was 21.8 µM, the EC90 ([9]; Vero E6, 48 hpi) was 24.4 µM and the “inhibition of CPE” value [1] was 70.5%. For the same compound, the EC50 [1, 12] was 8.1 µM and 8.14 µM, the EC90 [1, 12] was over 25 µM and the CC50 [2] was 219 µM. For the same compound, the “Log P” value [6] was −0.22 and the solubility [7] was 1800 mg/mL.
In the case of CC1(C)C2CC[C@@]1(CS(=O)(=O)[O-])C(=O)C2.[Na+] [6a], the CC50 [3] is reported as 142 µM.
With CS(=O)(=O)[O-].[K+] [3a, potassium methanesulfonate] the CC50 [3] was over 400 µM.
With CC1(C)C2CC[C@@]1(CS(=O)(=O)O)C(=O)C2.CC1(C)C2CC[C@@]1(CS(=O)(=O)O)C(=O)C2.CCN(CCO)CCCC(C)Nc1ccnc2cc(Cl)ccc12 (centres unmarked) [compound 6] the “Log P” value [6] was −1.16 and the “Water Solubility” value [7] was 2020 mg/mL.
